One compound from patent US12594292B2, “Antiviral prodrugs, intermediate-and long-acting formulations and methods” (priority 2022, dated 2026) can be followed below.

The structures appear in SMILES notation.

One series deals with Calu-3 cells. The series can be described thus: Cytotoxicity in Calu-3 cells, nuclei count or CellTiter-Glo (Example 6). The note with it: for select compounds up to 100 μM by CellTiter-Glo. A general note: In ATP-based viability assays light output follows the ATP content of the culture.
The test system of a further series is Human Coronavirus 229E. Nature of the series: Human Coronavirus 229E infected MRC-5 cells, CPE by MTT (Example 8). The note with it: 229E in MRC-5 cells, 72 hours. In kind it is cell-based.
For series [1], the system named is VERO E6 cells. The series can be described thus: Cell viability assay CellTiter-Glo, Vero E6 cells (Example 7).
The subject of another series is HCoV-229E. In kind it is cell-based, human Coronavirus 229E.
Series [2] relates to VERO E6 cells. Nature of the series: Cellular cytotoxicity in Vero E6 cells, MTT assay (Example 2). The class given is cell-based. The procedure: Ten thousand Vero E6 cells were seeded in 100 microliters of culture medium in 96 well plates. The following day serial two-fold dilutions of antiviral compounds or the DMSO-containing vehicle were added to each well. The USA WA-01 strain of SARS CoV-2 was added to each well at a multiplicity of infection of 0.1 thirty minutes later. Cells were incubated for 48 hours, washed twice in PBS and lysed with TRIzol. RNA was extracted using Directzol micro RNA columns. RNA was made into cDNA and assayed for the SARS CoV-2 spike protein and for a housekeeping gene (RPLPO) RNA by qPCR. Data represents the average of duplicate wells. Cellular cytotoxicity was also measured in VERO E6 cells. […] Cytotoxicity (CC50) was assessed using a commercially available MTT assay.

Series [3] relates to SARS-CoV-2 isolate USA-WA1/2020. The series can be described thus: SARS-CoV-2 infection in Caco-2 cells, qRT-PCR (Example 7). The class given is cell-based.
The test system of another series is SRV A2 strain of RSV. The series can be described thus: RSV infection in Hep-2 cells, CPE reduction. The class given is cell-based, respiratory syncytial virus. The conditions noted are these: RSV A2 in Hep-2 cells, 72 to 96 hours. The procedure: Methods: The SRV A2 strain of RSV was obtained from the ATCC. Ten thousand Hep-2 cells were seeded into each well of a 96-well plate in EMEM with 10% fetal bovine serum and 1% penicillin and streptomycin. Each well was inoculated with 100 TCID50 of virus. Two hours later wells were washed once with medium and serial four-fold dilutions of candidate antiviral drugs were added.

Series [4] deals with SARS-CoV-2 isolate USA-WA1/2020. Nature of the series: SARS-CoV-2 infection in Huh7.5 cells, qRT-PCR (Example 7). The class given is cell-based.
Another series concerns Caco-2 cells. The series can be described thus: Cell viability assay CellTiter-Glo, Caco-2 cells (Example 7). The note with it: Caco-2 cells, CellTiter-Glo.
Series [5] can be described thus: Seven day oral pharmacokinetics in Syrian hamsters. In kind it is in vivo. The method, then: ODBG-P-RVn in 0.1M sodium carbonate/bicarbonate buffer, pH 9.0, was administered to Syrian Hamsters by oral gavage every 12 hours for seven days. ODBG-P-RVn was present as the sodium salt.
FIG. 4A and FIG. 4B depict the seven day oral pharmacokinetics in Syrian hamsters. Syrian hamsters were given vehicle or ODBG-P-RVn by oral gavage every 12 hours for 7 days. Groups of 3 animals received vehicle or drug at doses of 16.9 and 13.2 mg/kg. Animals were weighed daily and monitored for clinical signs.
Analytical Methods: ODBG-P-RVn: Hamster plasma samples (10 μL) containing ODBG-P-RVn and K2EDTA as the anticoagulant were added to polypropylene tubes containing water (100 μL), internal standard solution (10 μL; 1,000 ng/mL of ODE-P-RVn in ACN:DMF (1:1, v/v)), and 10 μL of ACN:DMF (1:1, v/v). The solutions were mixed, then acidified with phosphoric acid, 85% w/v:water (1:19, v/v; 10 μL), mixed, then diluted with 200 μL of IPA, mixed, then diluted with 500 μL of water, and mixed. The samples were extracted with a Sep-Pak® tC18 96-well solid phase extraction plate (25 mg; Waters, Milford, MA). Extraction occurred under positive pressure conditions using nitrogen. Samples were washed serially with 1 mL of water:acetonitrile:formic acid (475:25:0.5, v/v/v) and 0.4 mL of water:acetonitrile:formic acid (350:150:0.5, v/v/v) before being serially eluted with 100 μL and 150 μL of water:{acetonitrile:isopropyl alcohol (1:1, v/v)}:formic acid:ammonium formate:citric acid solution, 2% w/v (15:85:0.1:0.1:0.1, v/v/v/w/v). The citric acid solution was prepared as water:citric acid monohydrate (20:0.4, v/w). After elution, 100 μL of water was added to each sample. The ODBG-P-RVn extracts were analyzed using an Agilent 1200 HPLC system (Agilent, Santa Clara, CA) coupled to an API5500 mass analyzer (SCIEX, Foster City, CA). Analytes were chromatographically separated using a Dacapo DX-C18 MF column (100×2 mm, 2.5 μm; ImtaktUSA, Portland, OR) using a mobile phase system consisting of Mobile Phase A (water:formic acid:[water:ammonium formate:citric acid (25:5:0.5, v/w/w)](1.000:1:1, v/v/v) and Mobile Phase B (acetonitrile:isopropyl alcohol:formic acid:[water:ammonium formate:citric acid (25:5:0.5, v/w/w)](800:200:1:1, v/v/v/v). The total analytical run time was 4.5 minutes. The mobile phase was nebulized using heated nitrogen in a Turbo-V source/interface set to electrospray positive ionization mode. The ionized compounds were detected using multiple reaction monitoring with transitions m/z 788.4>229 (V2043) and 668.4>467.2 (V2041). This method is applicable for measuring ODBG-P-RVn concentrations ranging from 6.25 to 3,000 ng/mL using 10.0 μL of plasma for extraction. The peak areas of ODBG-P-RVn and RVn were acquired using Analyst v. 1.6.2 (SCIEX, Framingham, MA). The calibration curve was obtained by fitting the peak area ratios of the analyte/I.S. and the standard concentrations to a linear equation with 1/x2 weighting, using Analyst. The equation of the calibration curve was then used to interpolate the concentrations of the analyte in the samples using their peak area ratios. The peak areas used for the calculations were not rounded.
The solutions were mixed and centrifuged at 16,000 g for five minutes. […] The GS-441524 extracts were analyzed using an Acquity UPLC system (Waters, Milford, MA) coupled to a G2-S QTof mass analyzer (Waters, Milford, MA). […]

Setting [6] is: Caco-2 cells, MOI 0.01, 48 hours.

Experimental for Calu-3 cells: After which an equal volume of CellTiter-Glo reagent (Cat. #G7570, Promega, Madison, WI) was added, mixed and luminescence recorded on a Veritas Microplate Luminometer (Turner BioSystems) according to manufacturer recommendations.

The CC50 is the concentration at which the toxic effect on the cells reaches its halfway point. A word on the EC50: it is the concentration at which the effect is half-maximal. Low values mean an effect from little substance, high ones a need for much substance. A word on the EC90: it is the concentration at which the effect reaches the 90% level. The low end stands for greater potency, the high end for weaker potency. Regarding `CCCCCCCCCCCCCCCCCCOC[C@H](COP(=O)(O)OC[C@H]1O[C@@](C#N)(c2ccc3c(N)ncnn23)[C@H](O)[C@@H]1O)OCc1ccccc1` [Compound 15d, 1-O-octadecyl-2-O-benzyl-sn-glyceryl-phospho-RVn], the CC50 is > 20000 nM with Calu-3 cells; 97900 nM in the series on VERO E6 cells [1]; > 50000 nM in the series with VERO E6 cells [2]; 88400 nM with Caco-2 cells; 43100 ± 18900 nM in the series on MRC-5 cells. For the same compound, the EC50 with Human Coronavirus 229E is 150 nM; in the series with HCoV-229E it was 100 nM; in series [3] (setting [6]) it was 300 nM; in the series on SRV A2 strain of RSV, 10 nM; in series [4] (Huh7.5 cells, MOI 0.01, 48 hours, qRT-PCR (Example 7), listed as ODBG-P-RVn) it was 140 nM. Also, the EC90 came to 280 ± 13 nM in the series on HCoV-229E; 330 nM in series [3] (setting [6]); 19 nM in the series on SRV A2 strain of RSV; 150 nM in series [4] (Huh7.5 cells, MOI 0.01, 48 hours, qRT-PCR (Example 7)). For the same compound, the Selectivity in series [3] (CC50/EC50, Caco-2 cells) was determined as 295; in series [4] (CC50/EC50, Huh7.5 cells), 449. In series [5] (day 1 and 7), the “ODBG-P-RVn plasma levels at 12 hours versus EC90 in all cell lines studied” value is “above the EC90”. In addition, in [5] (hamster, in vivo, po), the “time in which plasma levels fell by 50%” value was “about 5 hours”. In addition, the “tolerability, clinical signs” value in series [5] (oral gavage every 12 hours for seven days) was “well tolerated”.
